From patent US20240307419A1, “CONFORMATIONALLY-CONSTRAINED INHIBITORS OF 3C OR 3C-LIKE PROTEASES” (priority 2021, published 2024)
Where two headings read alike, the source gives them in different places.

What was measured:
[1] = tested on: CRFK cells; details: cat
[2] = molecular target: SARS-CoV-2 3CLpro (Severe acute respiratory syndrome coronavirus 2 (2019-nCoV) (SARS-CoV-2), UniProt P0DTD1); test: biochemical; assay type: biochemical
[3] = tested on: SARS-CoV-2 replicon; test: microbe, parasite or virus in culture; assay type: cell-based; details: read-out: EC50, SARS-CoV-2 replicon assay
[4] = tested on: feline infectious peritonitis virus (FIPV); details: cell culture and naturally infected animals with long term treatment; previously reported; cited from earlier work
[5] = tested on: SARS-CoV-2 replicon; details: 293T cells, previously reported; read-out: EC50 previously reported with the same system; cited from earlier work
[6] = tested on: SARS-CoV-2; test: in vitro; details: African green monkey
[7] = tested on: SARS-CoV-2
[8] = tested on: SARS-CoV-2; test: microbe, parasite or virus in culture; details: Severe acute respiratory syndrome coronavirus 2, Vero C1008, read-out: EC50 against SARS-CoV-2 in Vero E6 cells
[9] = molecular target: MERS-CoV 3CLpro (Middle East respiratory syndrome-related coronavirus (isolate United Kingdom/H123990006/2012) (MERS-CoV) (Betacoronavirus England 1), UniProt K9N7C7); assay type: biochemical
[10] = tested on: Huh-7, CRFK, or CCL1 cells
[11] = Severe acute respiratory syndrome coronavirus 2, HEK-293T, 30 h

MERS-CoV 3CLpro, sequence (K9N7C7 3248-3553 limits assumed): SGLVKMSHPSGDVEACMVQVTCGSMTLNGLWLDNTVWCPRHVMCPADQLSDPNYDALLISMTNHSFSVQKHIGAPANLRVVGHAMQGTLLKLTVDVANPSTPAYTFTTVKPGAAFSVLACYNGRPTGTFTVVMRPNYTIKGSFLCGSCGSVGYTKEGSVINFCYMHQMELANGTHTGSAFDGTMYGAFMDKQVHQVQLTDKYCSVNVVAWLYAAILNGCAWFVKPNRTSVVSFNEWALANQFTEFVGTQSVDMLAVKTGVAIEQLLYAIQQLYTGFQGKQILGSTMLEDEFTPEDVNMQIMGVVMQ

In the case of `CC(C)C[C@H](NC(=O)OCC1CN(C(=O)OC(C)(C)C)C1)C(=O)N[C@@H](C[C@H]1CCNC1=O)C(O)S(=O)(=O)O` (stereo partly drawn) [Compound 14c, Sodium (2S)-2-((S)-2-((((1-(tert-butoxycarbonyl)azetidin-3-yl)methoxy)carbonyl)amino)-4-methylpentanamido)-1-hydroxy-3-((R)-2-oxopyrrolidin-3-yl)propane-1-sulfonate], the CC50 [1] is reported as > 100000 nM, the IC50 [2] is reported as 50 nM and the EC50 [3, 11] is reported as 430 nM.

In the case of `CC(C)C[C@H](NC(=O)OC1CC2(CCN(C(=O)OC(C)(C)C)CC2)C1)C(=O)N[C@H](C=O)C[C@H]1CCNC1=O` [Compound 7b, Tert-butyl 2-((((S)-4-methyl-1-oxo-1-(((S)-1-oxo-3-((R)-2-oxopyrrolidin-3-yl)propan-2-yl)amino)pentan-2-yl)carbamoyl)oxy)-7-azaspiro[3.5]nonane-7-carboxylate], the CC50 [1] is reported as > 100000 nM, the “IC50 lower than that of compound 1b” value [2] is reported as > 9 fold and the EC50 [3, 11] is reported as 90 nM.

For `CC(C)C[C@H](NC(=O)OCc1ccccc1)C(=O)N[C@@H](C[C@@H]1CCNC1=O)C(O)S(=O)(=O)[O-].[Na+]` (stereo partly drawn) [GC376], the “barrier to resistance to FIPV” value [4] is given as “high barrier to resistance”.

In the case of `CC(C)C[C@H](NC(=O)OCc1ccccc1)C(=O)N[C@@H](CC1CCNC1=O)C(O)S(=O)(=O)O` (stereo partly drawn) [GC376], the EC50 [5] is listed as 20 nM and the EC50 [3] is listed as 37 ± 10 nM.

For `CC(C)C[C@H](NC(=O)OCC1C[C@H]2CCC[C@@H](C1)C2)C(=O)N[C@@H](C[C@@H]1CCNC1=O)C(O)S(=O)(=O)[O-].[Na+]` (stereo partly drawn) [Compound 3a, Sodium (2S)-2-((2S)-2-(((((1R,5S)-bicyclo[3.3.1]nonan-3-yl)methoxy)carbonyl)amino)-4-methylpentanamido)-1-hydroxy-3-((S)-2-oxopyrrolidin-3-yl)propane-1-sulfonate], the selectivity ratio [6] was 3120, the IC50 ([2]; read-out: IC50) was 170 ± 20 nM and the “EC50 lower than the corresponding IC50 values” [7] was ~4.6 fold. The EC50 [8] was 32 nM, the IC50 [9] was 49 ± 2 nM and the CC50 [10] was > 100000 nM.

With `CC(C)C[C@H](NC(=O)OC[C@@H]1C[C@@H]2CCC[C@@H](C2)C1)C(=O)N[C@H](C=O)C[C@@H]1CCNC1=O` [Compound 2a, ((1R,3s,5S)-Bicyclo[3.3.1]nonan-3-yl)methyl ((S)-4-methyl-1-oxo-1-(((S)-1-oxo-3-((S)-2-oxopyrrolidin-3-yl)propan-2-yl)amino)pentan-2-yl)carbamate] the IC50 ([2]; read-out: IC50) was 180 ± 30 nM, the “EC50 lower than the corresponding IC50 values” [7] was ~4.6 fold and the selectivity indices [7] was 2857. The EC50 ([7]; read-out: EC50 against SARS-CoV-2 in Vero E6 cells) was 35 nM, the IC50 [9] was 52 ± 1 nM and the CC50 [10] was > 100000 nM.
